In the supplement of paper PMC10307832:

How the values were obtained:
Assay in all cases: relative viability (nuclei count vs DMSO), 5 days (fraction); higher = more cells survive
[1] = compound: COc1cc2nc(N3CCCN(C)CC3)nc(NC3CCN(Cc4ccccc4)CC3)c2cc1OC + CCNC(=O)c1noc(-c2cc(C(C)C)c(O)cc2O)c1-c1ccc(CN2CCOCC2)cc1 [Luminespib] (partner 0.01 µM)
Summary of the method: (§1)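 Each reported value is a median over duplicate plates. It expresses relative viability: treated-well nuclei count divided by vehicle-well nuclei count. Lung cancer cell lines in 1536-well plates were dosed by pin tool a day after seeding, alone with one drug or with a fixed anchor-drug dose plus five library-drug doses (not always all listed) in √10 steps, and nuclei were counted after 5 days.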

AZD6482 + OSI-027 = compound: Cc1cc([C@@H](C)Nc2ccccc2C(=O)O)c2nc(N3CCOCC3)cc(=O)n2c1 [AZD6482] + COc1cccc2cc(-c3nc([C@H]4CC[C@H](C(=O)O)CC4)n4ncnc(N)c34)[nH]c12 [OSI-027] (partner 0.5 µM)
Summary of the method: as §1

[2] = compound: COc1cc2nc(N3CCCN(C)CC3)nc(NC3CCN(Cc4ccccc4)CC3)c2cc1OC + CS(=O)(=O)N1CCN(Cc2cc3nc(-c4cccc5[nH]ncc45)nc(N4CCOCC4)c3s2)CC1 [Pictilisib] (partner 1 µM)
Summary of the method: as §1

AZD6482 + AZD7762 = compound: Cc1cc([C@@H](C)Nc2ccccc2C(=O)O)c2nc(N3CCOCC3)cc(=O)n2c1 [AZD6482] + NC(=O)Nc1cc(-c2cccc(F)c2)sc1C(=O)N[C@H]1CCCNC1 [AZD7762] (partner 0.2 µM)
Summary of the method: as §1

Cell Line | relative viability ([1]; first compound 0.2 µM) | relative viability ([1]; first compound 0.6325 µM) | relative viability ([1]; first compound 2 µM) | relative viability ([1]; first compound 6.325 µM) | relative viability (AZD6482 + OSI-027; first compound 0.08 µM) | relative viability (AZD6482 + OSI-027; first compound 0.253 µM) | relative viability (AZD6482 + OSI-027; first compound 0.8 µM) | relative viability (AZD6482 + OSI-027; first compound 2.53 µM) | relative viability (AZD6482 + OSI-027; first compound 8 µM) | relative viability ([2]; first compound 0.2 µM) | relative viability ([2]; first compound 0.6325 µM) | relative viability ([2]; first compound 2 µM) | relative viability ([2]; first compound 6.325 µM) | relative viability (AZD6482 + AZD7762; first compound 0.08 µM) | relative viability (AZD6482 + AZD7762; first compound 0.253 µM) | relative viability (AZD6482 + AZD7762; first compound 0.8 µM) | relative viability (AZD6482 + AZD7762; first compound 2.53 µM) | relative viability (AZD6482 + AZD7762; first compound 8 µM)
NCI-H1734 | 0.182 | 0.194 | 0.183 | 0.172 | 0.46 | 0.509 | 0.542 | 0.362 | 0.387 | 0.459 | 0.418 | 0.392 | 0.384 | 0.533 | 0.504 | 0.556 | 0.303 | 0.367
NCI-H1755 | 0.44 | 0.536 | 0.406 | 0.478 | 0.605 | 0.595 | 0.662 | 0.486 | 0.494 | 0.423 | 0.425 | 0.377 | 0.317 | 0.463 | 0.417 | 0.453 | 0.344 | 0.311
NCI-H1792 |  | 0.377 | 0.419 | 0.721 | 0.662 | 0.677 | 0.73 | 0.511 | 0.406 | 0.299 | 0.233 | 0.247 | 0.276 | 0.516 | 0.577 | 0.427 | 0.262 | 0.322
NCI-H1793 | 0.18 | 0.193 | 0.134 | 0.154 | 0.266 | 0.243 | 0.261 | 0.132 | 0.16 | 0.317 | 0.342 | 0.282 | 0.372 | 0.377 | 0.361 | 0.315 | 0.218 | 0.249
NCI-H1915 | 0.762 | 0.731 | 0.794 | 0.893 | 0.575 | 0.57 | 0.689 | 0.505 | 0.595 | 0.94 | 0.97 | 1.04 | 0.865 | 0.672 | 0.538 | 0.669 | 0.631 | 0.639
NCI-H1944 | 0.829 | 0.668 | 0.863 | 0.661 | 0.389 | 0.417 | 0.428 | 0.249 | 0.301 | 0.342 | 0.365 |  | 0.336 | 0.57 | 0.522 | 0.499 | 0.381 | 0.417
NCI-H1975 | 0.159 | 0.212 | 0.21 | 0.264 | 0.631 | 0.616 | 0.779 | 0.495 | 0.427 | 0.276 | 0.313 | 0.332 | 0.248 | 0.621 | 0.631 | 0.676 | 0.477 | 0.363
NCI-H1993 | 0.818 | 0.719 | 0.923 | 0.867 | 0.502 | 0.521 | 0.516 | 0.529 | 0.534 | 0.709 | 0.858 | 0.894 | 0.811 | 0.454 | 0.734 | 0.717 | 0.427 | 0.55
NCI-H2085 | 0.458 | 0.393 | 0.373 | 0.404 | 0.523 | 0.478 | 0.473 | 0.28 | 0.331 | 0.446 | 0.522 | 0.471 | 0.404 | 0.522 | 0.372 | 0.41 | 0.289 | 0.341
NCI-H2087 | 0.188 | 0.162 | 0.364 | 0.136 | 0.495 | 0.43 | 0.46 |  | 0.332 | 0.752 | 0.996 | 0.872 | 0.834 | 1.35 | 1.35 | 1.46 | 0.887 | 1.09
NCI-H2126 | 0.877 | 0.864 | 0.754 | 0.815 | 0.647 | 0.652 | 0.704 | 0.403 | 0.485 | 0.505 | 0.557 | 0.456 | 0.47 | 1.02 | 0.849 | 1.02 | 0.795 | 0.762
NCI-H2170 | 0.887 | 0.648 | 0.88 | 0.69 | 0.66 | 0.631 | 0.612 | 0.531 | 0.677 | 0.353 | 0.371 | 0.288 | 0.284 | 0.806 | 0.788 | 0.785 | 0.615 | 0.566
NCI-H2347 | 0.57 | 0.521 | 0.446 | 0.524 | 0.222 | 0.268 | 0.317 | 0.194 | 0.223 | 0.702 | 0.686 | 0.574 | 0.549 | 0.502 | 0.464 | 0.332 | 0.32 | 0.373
NCI-H2405 | 0.778 | 0.673 | 0.75 | 0.786 | 0.46 |  | 0.595 | 0.369 | 0.336 | 0.453 | 0.383 | 0.584 | 0.328 | 0.563 | 0.658 | 0.697 | 0.388 | 0.374
NCI-H3122 | 0.0795 | 0.0919 | 0.0888 | 0.0791 | 1.01 | 1.01 | 0.89 |  | 0.465 | 0.589 | 0.634 | 0.601 | 0.478 | 0.956 | 0.987 | 1.05 | 0.696 | 0.777
PC-3 [JPC-3] | 0.753 | 0.675 | 0.745 | 0.585 | 0.654 | 0.732 | 0.723 | 0.502 | 0.633 | 0.721 | 0.763 | 0.6 | 0.805 | 0.872 | 0.715 | 0.741 | 0.367 | 0.413
PC-14 | 0.123 | 0.242 | 0.162 | 0.122 | 0.723 | 1.04 | 0.841 | 0.658 | 0.954 | 0.676 | 0.541 | 0.838 | 0.239 | 0.417 | 0.302 | 0.324 | 0.26 | 0.194
RERF-LC-KJ | 1.15 | 1.13 | 1.33 | 0.903 | 0.547 | 0.496 | 0.458 | 0.497 | 0.399 | 0.458 | 0.559 | 0.585 | 0.579 | 0.867 | 0.893 |  | 0.812 | 0.838
